Assay results from PMC9930359, “Cytotoxicity of the methanol extracts and compounds of Brucea antidysenterica (Simaroubaceae) towards multifactorial drug-resistant human cancer cell lines” (BMC Complementary Medicine and Therapies, 2023).
Values belong to the molecule of their own block, whether it stands above or below them.

Legend:
[1] = system: HCT116 p53+/+ cells; assay: Resazurin reduction assay (RRA), cytotoxicity; type: cell-based; conditions: Homo sapiens, HCT-116, 72 h
[2] = system: CEM/ADR5000 cells; assay: Resazurin reduction assay (RRA), cytotoxicity; type: cell-based, human; conditions: for IC50: Homo sapiens, CEM/ADR5000, 72 h; for Degree of resistance (D.R.): ratio of IC50 CEM/ADR5000 vs CCRF-CEM
Experimental: (§2) The RPMI-1640 medium was used for the culture of CCRF-CEM and CEM/ADR5000 cells whilst DMEM medium was used for carcinoma cells. The culture media were supplemented (complete medium) with 10% fetal bovine serum and 1% penicillin/streptomycin (Invitrogen, Eggenstein, Germany). […] To maintain the resistance phenotype of the resistant carcinoma cell lines such as MDA-MB-231/BCRP and HCT116 p53^−/−, and U87MG.ΔEGFR cells, the complete DMEM medium containing geneticin at 800 ng/ml and 400 µg/ml, respectively were used [41, 42].
(§3) Cells were cultured in a standard condition consisted of a humidified 5% CO2 atmosphere and an incubation temperature of 37 °C. The tested concentration ranges were 0.63—80 µg/mL for the botanicals and 0.78—100 µM for phytochemicals. The incubation time of the treated cells was 72 h, and the fluorescence was measured with Infinite M2000 Pro™ plate reader (Tecan, Crailsheim, Germany). The wavelengths used were 544 nm for the excitation and 590 nm for the emission. […] The degree of resistance (D.R.) was set as the ratio of the IC50 values of samples in the resistant cell line vs that of corresponding sensitive cell line. The selectivity index (S.I.) was the ratio of the IC50 value of AML12 hepatocytes vs. that of HepG2 cells [13, 48].

[3] = system: HCT116 p53−/− cells; assay: Resazurin reduction assay (RRA), cytotoxicity; type: cell-based, human; conditions: for IC50: Homo sapiens, HCT-116, HCT116 p53−/−, 72 h
Experimental: as §2, §3

[4] = system: AML12 hepatocytes; assay: Resazurin reduction assay (RRA), cytotoxicity on normal hepatocytes; type: cell-based; conditions: Mus musculus, AML12 normal hepatocytes, 72 h
Experimental: as §2, §3

[5] = system: MDA-MB-231-BCRP cells; assay: Resazurin reduction assay (RRA), cytotoxicity; conditions: for IC50: Homo sapiens, MDA-MB-231/BCRP, 72 h
Experimental: as §2, §3

[6] = system: HepG2 cells; assay: Resazurin reduction assay (RRA), cytotoxicity; type: cell-based; conditions: Homo sapiens, HepG2, 72 h
[7] = system: U87MG.ΔEGFR cells; assay: Resazurin reduction assay (RRA), cytotoxicity; type: cell-based, human; conditions: for IC50: Homo sapiens, U87MG.ΔEGFR, 72 h
Experimental: as §2, §3

[8] = system: MDA-MB-231-pcDNA cells; assay: Resazurin reduction assay (RRA), cytotoxicity; type: cell-based; conditions: Homo sapiens, 72 h
Source text: (§4) In this work, 9 cancer cell lines with various drug resistance patterns as well as AML12 hepatocytes as normal control cell line were used. […] The AML12 hepatocytes were used for the comparison of the activities of the samples with HepG2 [40]. […] The RPMI-1640 medium was used for the culture of CCRF-CEM and CEM/ADR5000 cells whilst DMEM medium was used for carcinoma cells. The culture media were supplemented (complete medium) with 10% fetal bovine serum and 1% penicillin/streptomycin (Invitrogen, Eggenstein, Germany). […] To maintain the resistance phenotype of the resistant carcinoma cell lines such as MDA-MB-231/BCRP and HCT116 p53^−/−, and U87MG.ΔEGFR cells, the complete DMEM medium containing geneticin at 800 ng/ml and 400 µg/ml, respectively were used [41, 42].
as §3

[9] = system: CCRF-CEM leukemia cells; assay: Resazurin reduction assay (RRA), cytotoxicity; type: cell-based; conditions: Homo sapiens, 72 h
Source text: as §4, §3

[10] = system: U87MG cells; assay: Resazurin reduction assay (RRA), cytotoxicity; type: cell-based; conditions: Homo sapiens, U-87 MG, 72 h
Source text: as §4, §3

[11] = system: CCRF-CEM cells; assay: Reactive oxygen species (ROS), H2DCFH-DA staining, flow cytometry; type: cell-based, human; conditions: 50 µM, 24 h
Experimental: (§1) The modification of the MMP as well as the ROS levels after the application of BAL, and flavonolignan 2 at ¼ IC50, ½ IC50, IC50, and 2 × IC50 to CCRF-CEM cells (1 × 10^6) was performed by flow cytometry. DMSO was used as solvent control while valinomycin served as a positive control. The cells were incubated for 24 h and further stained for 30 min with JC-1 [45] and measured (1 × 10^4 cells) in an LSR-Fortessa FACS analyzer (Becton–Dickinson). For ROS determination, CCEF-CEM cells were similarly treated BAL, the flavonolignan 2, hydrogen peroxide (H2O2; positive control), DMSO (solvent control) as in the MMP analysis, then incubated for 24 h. They were further stained with H2DCFH-DA and measured (1 × 10^4 cells) in an LSR-Fortessa FACS analyzer.

[12] = system: CCRF-CEM cells; assay: Mitochondrial membrane potential (MMP), JC-1 staining, flow cytometry; type: cell-based, human; conditions: 10 µM, 24 h
Experimental: as §1

[13] = system: PC-3; set-up: method as in PMID 31816856; conditions: on PC-3 ref 30; cited from earlier work

- melting point: 209 to 211 °C
Molecule: CC(C)(O)[C@@H](O)Cc1cn([C@@H]2O[C@H](CO)[C@@H](O)[C@H](O)[C@H]2O)c2ccccc12 [Compound 7, 3-(2’,3’-dihydroxy-3’-méthylbutyl)-1N-β-glucopyranosylindole]
- IC50 [1]: > 100 µM
- IC50 [2]: > 100 µM
- Degree of resistance (D.R.) [2]: > 4.91
- IC50 [3]: > 100 µM
- IC50 [4]: > 100 µM
- IC50 [5]: > 100 µM
- IC50 [6]: > 100 µM
- IC50 [7]: > 100 µM
- IC50 [8]: > 100 µM
- IC50 [9]: 20.4 ± 0.94 µM
- IC50 [10]: > 100 µM

Molecule: OO [Compound H2O2, hydrogen peroxide, reference compound]
- ROS levels in treated cells [11]: 94.30%

Molecule: COc1cccc2c1C(=O)c1c(O)c3c(c(O)c1C2=O)C[C@@](O)(C(=O)CO)C[C@@H]3O[C@H]1C[C@H](N)[C@H](O)[C@H](C)O1 [Doxorubicin, reference compound]
- IC50 ([2]; Table 2): 123 ± 10.9 µg/mL
- Degree of resistance (D.R.) [2]: 6,683.00
- IC50 ([3]; Table 2): 1.78 ± 0.08 µg/mL
- Degree of resistance (D.R.) ([3]; ratio of IC50 HCT116 p53−/− vs HCT116 p53+/+): 3.73
- IC50 ([4]; Table 2): > 50 µg/mL
- IC50 [5]: 0.79 ± 0.08 µg/mL
- Degree of resistance (D.R.) ([5]; ratio of IC50 MDA-MB-231-BCRP vs MDA-MB-231-pcDNA): 6.14
- IC50 ([6]; Table 2): 4.56 ± 0.48 µg/mL
- IC50 ([7]; Table 2): 0.98 ± 0.07 µg/mL
- Degree of resistance (D.R.) ([7]; ratio of IC50 U87.MGΔEGFR vs U87.MG): 3.79
- IC50 ([8]; Table 2): 0.13 ± 0.01 µg/mL
- IC50 [9]: 0.02 µM
- IC50 ([9]; Table 2): 0.02 µg/mL
- IC50 ([10]; Table 2): 0.26 ± 0.03 µg/mL

Molecule: CC(C)[C@@H]1NC(=O)[C@H](C)OC(=O)[C@@H](C(C)C)NC(=O)[C@@H](C(C)C)OC(=O)[C@H](C(C)C)NC(=O)[C@H](C)OC(=O)[C@@H](C(C)C)NC(=O)[C@@H](C(C)C)OC(=O)[C@H](C(C)C)NC(=O)[C@H](C)OC(=O)[C@@H](C(C)C)NC(=O)[C@@H](C(C)C)OC1=O [valinomycin, reference compound]
- cells with MMP disrupted [12]: 16.8%
- cells with MMP loosed [12]: 44.5%
- healthy cells (intact MMP) [12]: 38.8%

Molecule: bruceacanthinones A
- IC50 [13]: 196 µM
